Values joined by “and” are separate entries in the source; they are usually repeats but may differ in a detail not shown here. Equal values may be shown once. “Also recorded” adds a separate entry of the source. Residues, ends and D or L forms follow the SMILES beside them. No end group written: not given here.
What was measured:
[1] = molecular target: T1, TLR2 (Mus musculus, UniProt Q9QUN7); experiment: Inhibition of TLR2 signaling in thioglycollate-elicited mouse macrophages (effective concentration, TLR2 agonists P3C/P2C); type: cell-based; settings: for Effective conc.: TLR2 pathway, thioglycollate-elicited mouse macrophages
T1 construct: Primary peritoneal macrophages were obtained by peritoneal lavage; endogenous in cells; host or cells: thioglycollate-elicited mouse peritoneal macrophages
Experimental: (§1) C57BL/6J mice were obtained from The Jackson Laboratory (Bar Harbor, Me.). Primary peritoneal macrophages were obtained by peritoneal lavage 4 days after intraperitoneal injection (3 ml) of sterile 3% thioglycolate broth. Washed cells were resuspended in RPMI 1640 which contained 2% FBS, 1% penicillin:streptomycin and 2 mM L-glutamine. After plating, cells were incubated overnight at 37° C. and then washed with PBS to remove non-adherent cells. Cells were exposed to peptides 30 min before stimulation with a TLR agonist.
(§2) Protein-free Escherichia coli K235 LPS was used at final concentration of 10 ng/ml to stimulate cells. S-[2,3-bis(palmitoyloxy)-(2-RS)-propyl]-N-palmitoyl-(R)-Cys-Ser-Lys4-OH (P3C) and S-[2,3-bis(palmitoyloxy)-(2-RS)-propyl]-[R]-Cys-Ser-Lys4-OH (P2C) were purchased from EMC microcollections GmbH (Tubingen, Germany) and used for cell stimulation at 500 and 50 ng/ml, respectively. Phospho-ERK1/2 and phospho-JNK1/2 rabbit Abs were obtained from Cell Signaling Technology, Inc. β-actin rabbit Ab were from SantaCruz Biotechnology, Inc.
(§3) Because of the role TRAP plays in TLR2 signaling, TIRAP TIR-derived decoy peptide effects on TLR2-induced cytokine mRNA expression were examined. Thioglycollate-elicited mouse macrophages were stimulated either by P2C, an agonist that induces signaling through TLR2/TLR6 heterodimerization, or P3C, a TLR2/TLR1 agonist, and effects of TIRAP TR-derived decoy peptides on induction of cytokine mRNA were examined. […] To confirm the inhibitory effect of TR3 and TR6 on P3C-induced signaling, IL-6 and TNF-α concentration was measured in macrophage supernatants collected 5 h after stimulation of cells with P3C. […] Concordantly, both TR3 and TR6 diminished the P3C-induced ERK phosphorylation (FIG. 3D).
(§4) C57BL/6J mice were obtained from The Jackson Laboratory (BarHarbor, Me.). Harvesting, culturing, and stimulation of peritoneal macrophages were described in previous publications (1, 18, 19). Escherichia coli K235 LPS (34) was used at the final concentration of 100 ng/ml. The 2,3-bis(palmitoyloxy)-(2-RS)-propyl-N-palmitoyl-(R)-Cys-Ser-Lys4-OH (P3C) and S[2,3-bis(palmitoyloxy)-(2-RS)-propyl]-[R]-Cys-Ser-Lys4-OH (P2C) (EMC Microcollections, Tubingen, Germany) were used at 500 and 50 ng/ml, respectively. Oligonucleotide (ODN) 1668 and low m.w. polyinosinic-polycytidylic acid [poly(I:C)] in complex with LyoVec were obtained from InvivoGen; these agonists were used at 2.5 μM and 400 ng/ml, respectively.

[2] = molecular target: T2, TLR2/TLR1 heterodimer (Mus musculus, UniProt Q9QUN7); experiment: P3C-induced cytokine mRNA expression in mouse macrophages; type: cell-based; settings: peptide 30 min; P3C 500 ng/ml 1 hour (FIG. 15A)
T2 construct: endogenous in cells; host or cells: thioglycollate-elicited mouse peritoneal macrophages
From the text: (§5) Total cellular RNA was isolated using Tripure from Roche (San Francisco, Calif.) following manufacture's protocol. RNA was then reverse transcribed using AMV Reverse Transcriptase from Promega (Madison, Wis.) with poly-T priming as per manufacturer's directions. cDNA was then quantified by real-time PCR using Applied Biosystems Fast SYBR Green PCR Master Mix and an ABI Prism 7500HT cycler. Primers used for detection: hypoxanthine phosphoribosyltransferase (HPRT) (forward: […] (SEQ ID NO:51), reverse: […] (SEQ ID NO:52)), TNFα (forward: […] (SEQ ID NO:53), reverse: […] (SEQ ID NO:54)), IL-1β (forward: […] (SEQ ID NO:55), reverse: […] (SEQ ID NO:56)), IFNβ (forward: […] (SEQ ID NO:57), reverse: CTCGGACCACCATCCAGG (SEQ ID NO:58)) and RANTES (forward: […] (SEQ ID NO:59), reverse: […] (SEQ ID NO:60)). The primers were designed using Primer Express 2.0 (Applied Biosystems). Using HPRT as reference, the ΔCt method was used to calculate relative gene expression. One-way ANOVA was preformed, as well as Dunnett's multiple comparison post hoc test with a p≦0.01 selected as the level of significance.
as §2, §3, §4

[3] = molecular target: T3, TLR2/TLR6 heterodimer (Mus musculus, UniProt Q9QUN7); experiment: P2C-induced cytokine mRNA expression in mouse macrophages; type: cell-based; settings: peptide 30 min; P2C 50 ng/ml 1 hour (FIG. 15B)
T3 construct: endogenous in cells; host or cells: thioglycollate-elicited mouse peritoneal macrophages
From the text: as §5, §2, §3, §4

[4] = tested on: TLR4; experiment: Inhibition of TLR4 signaling in thioglycollate-elicited mouse macrophages (effective concentration, overall inhibitory activity); type: cell-based; settings: for Effective conc.: TLR4 pathway, thioglycollate-elicited mouse macrophages
Experimental: as §1
TIRAP/Mal functions to facilitate MyD88 recruitment to the activated TLR4 and TLR2, presumably through a simultaneous interaction with receptor and MyD88 TIR domains. Therefore, multiple TIR:TIR interaction sites are expected in TIRAP TIR. The decoy peptide approach was used to obtain leads on the functional protein-protein interfaces within TIRAP/Mal, a TLR adapter protein. To this end, eleven TIRAP TIR-derived decoy peptides were designed to be structurally homologous to the TLR4 TIR-derived decoy peptides used previously (1), so that each peptide represents a non-fragmented patch of the TIRAP TIR surface, with the entire domain encompassed by the set of peptides. The TIRAP TIR-derived decoy peptides were synthesized in tandem with the cell-permeating sequence of Antennapedia homeodomain (21) and each peptide was tested for the ability to inhibit TLR4 and TLR2 signaling in primary mouse macrophages. Peptide sequences and the structural regions they represent are shown in reference (30).
as §4

[5] = tested on: C57BL/6J mice; experiment: In vivo efficiency of decoy peptides (Table 1; LPS challenge in mice); parameters: species or system mouse
Experimental: FIG. 4. Effect of select TRAP decoy peptides on TNF-α and IL-6 in blood following an ip LPS challenge. C57BL/6J mice were injected with TR5, TR6, or TR7 peptide or mock-treated 1 hour before injection of purified E. coli LPS. Peptides and LPS were injected to mice intraperitonealy 10 nmol or 1 μg per gram of animal weight, correspondingly.
(§6) FIG. 10. […] (A-E) C57BL/6J mice were injected i.p. with purified Escherichia coli K235 LPS (1 μg/g) or PBS. Peptides (10 nmol/g of animal weight) were injected i.p. (A, B, D, E) or i.v. (C) 1 h before (A, B, and C) or 30 min after (D, E) i.p. injection of LPS. Data in panels A and D show plasma IL-6 and TNF-α levels measured 2 h after LPS challenge. Peptide TM8/9 was used as a non-inhibitory control peptide. Data represent the means±s.e.m. for 6-12 blood samples obtained in at least three independent experiments. *p<0.01. (F, G) C57BL/6J mice were challenged i.p. with a lethal LPS dose (17.5 μg/g). Peptides (10 nmol/g) were injected i.p. 1 h before LPS challenge. […] The statistical significance of changes in mortality and survival time was determined by the Mantel Cox log-rank test using GraphPad Prism software (Version 5.04). *p<0.01.
(§7) Eight-week-old C57BL/6J mice were injected with 1 or 17.5 μg/g animal weight of E. coli K235 LPS i.p. Peptides reconstituted in PBS were administered i.p. or i.v. Control groups received equivalent volume of solvent (PBS). The blood samples were collected 1, 2, 4, and 8 h, or 2, 8, and 24 h after LPS challenge. The plasma samples were obtained and kept frozen until TNF-α and IL-6 were measured by ELISA. Survival of animals was monitored every 6-16 h after LPS challenge. All animal experiments were carried out with institutional approval.

[6] = tested on: C57BL/6J mice; experiment: Plasma TNF-α and IL-6 after sublethal LPS challenge in C57BL/6J mice; type: in vivo, mouse
Experimental: as §6, §7
We next studied whether peptides identified as inhibitory in in vitro tests are effective in vivo. C57BL/6J mice were challenged i.p. with a sublethal LPS dose (1 μg/g animal weight), and plasma TNF-α and IL-6 levels were monitored for 8 h after the challenge. In the first series of experiments, we injected 10 nmol/g TM4 or TM6 i.p. 1 h before LPS challenge. The 10 nmol/g dose corresponds to 38, 41, and 32 mg/kg TM4, TM6, and TM4-ΔC, respectively.

[7] = tested on: C57BL/6J mice; experiment: Survival after lethal LPS challenge in C57BL/6J mice; type: in vivo, mouse; settings: LPS 17.5 μg/g i.p.
Experimental: as §6, §7
We next studied whether inhibitory peptides protect mice from a lethal LPS challenge. TR6, a previously described inhibitory peptide derived from the third helical region of TRAP (30), was also included in this study as an additional control. C57BL/6J mice were injected i.p. with 17.5 μg/g LPS. This dose induced 100% mortality in the control group (FIG. 10F). […] The peptide-treated survivors appeared active and healthy at the time the experiments were terminated, 7 d after injection of LPS.

[8] = tested on: MAPK (ERK, JNK, p38); experiment: MAPK activation by peptide alone, macrophages without TLR agonist; type: cell-based, mouse; settings: peptide alone; data not shown
Experimental: Neither TIRAP peptide activated ERK in cells incubated without a TLR agonist (not shown). […] The mechanism of this differential MAPK activation by select peptides, although interesting, is not understood at this time. Peptides TR9 and TR11 inhibited both ERK and JNK MAPKs (FIG. 1D). Peptide-induced inhibition of ERK persisted over a long period of time.
We next examined whether TRAM peptides inhibit the TLR4-mediated p38, ERK, and JNK MAPK activation. Murine macrophages pretreated with peptides for 30 min were challenged with LPS. Cell lysates were collected 30 min post-stimulation and analyzed for MAPK phosphorylation by Western analysis. Consistent with peptide effects on steady-state mRNA, both TM4 and TM6 inhibited activation of all three MAPKs (FIG. 5C). The inhibition of MAPKs by TM4 or TM6 was long lasting; it persisted for at least 1 h after LPS stimulation (data not shown). To characterize further the effects of TRAM peptides on MAPKs, murine macrophages were treated with TRAM peptides, but not challenged by LPS.

T1 sequence (Q9QUN7 25-784): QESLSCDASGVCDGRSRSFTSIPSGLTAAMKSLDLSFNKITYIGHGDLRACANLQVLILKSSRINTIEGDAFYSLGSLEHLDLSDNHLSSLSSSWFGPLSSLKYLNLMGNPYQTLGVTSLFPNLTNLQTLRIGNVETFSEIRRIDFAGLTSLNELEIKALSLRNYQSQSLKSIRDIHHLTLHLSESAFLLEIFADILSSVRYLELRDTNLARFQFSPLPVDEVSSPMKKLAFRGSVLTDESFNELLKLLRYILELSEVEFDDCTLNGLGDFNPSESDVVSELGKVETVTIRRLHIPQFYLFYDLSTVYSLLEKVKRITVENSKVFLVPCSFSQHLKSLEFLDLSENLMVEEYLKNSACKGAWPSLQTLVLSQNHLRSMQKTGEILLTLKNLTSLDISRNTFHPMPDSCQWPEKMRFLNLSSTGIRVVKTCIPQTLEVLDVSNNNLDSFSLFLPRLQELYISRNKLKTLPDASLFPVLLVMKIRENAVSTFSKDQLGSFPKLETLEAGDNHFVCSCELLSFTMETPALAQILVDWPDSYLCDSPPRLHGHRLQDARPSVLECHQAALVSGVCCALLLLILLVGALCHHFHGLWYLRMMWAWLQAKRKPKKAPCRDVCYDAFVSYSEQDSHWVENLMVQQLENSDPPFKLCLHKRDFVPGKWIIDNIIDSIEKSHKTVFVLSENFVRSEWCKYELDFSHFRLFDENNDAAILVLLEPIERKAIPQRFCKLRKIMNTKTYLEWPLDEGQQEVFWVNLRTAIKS
T2 sequence (Q9QUN7 25-784, one chain of several): as the sequence (Q9QUN7 25-784) above
T3 sequence (Q9QUN7 25-784, one chain of several): as the sequence (Q9QUN7 25-784) above

| Compound | Effective conc. [1] [µM] | Cytokine mRNA expression induced by P3C [2] | Cytokine mRNA expression induced by P2C [3] | Effective conc. [4] [µM] | In vivo efficiency [5] | further results |
| --- | --- | --- | --- | --- | --- | --- |
| CC[C@H](C)[C@H](NC(=O)[C@H](CCCCN)NC(=O)[C@@H](NC(=O)[C@H](CCC(N)=O)NC(=O)[C@@H](N)CCCNC(=N)N)[C@@H](C)CC)C(=O)N[C@@H](Cc1c[nH]c2ccccc12)C(=O)N[C@@H](Cc1ccccc1)C(=O)N[C@@H](CCC(N)=O)C(=O)N[C@@H](CC(N)=O)C(=O)N[C@@H](CCCNC(=N)N)C(=O)N[C@@H](CCCNC(=N)N)C(=O)N[C@@H](CCSC)C(=O)N[C@@H](CCCCN)C(=O)N[C@@H](Cc1c[nH]c2ccccc12)C(=O)N[C@@H](CCCCN)C(=O)N[C@@H](CCCCN)C(=O)N[C@@H](CCCNC(=N)N)C(=O)N[C@@H](CCCCN)C(=O)N1CCC[C@H]1C(=O)N[C@@H](CCCCN)C(=O)N[C@@H](CCCCN)C(=O)N[C@@H](C)C(=O)N1CCC[C@H]1C(=O)N[C@@H](CS)C(=O)N[C@@H](CCCNC(=N)N)C(=O)N[C@@H](CC(=O)O)C(=O)N[C@H](C(=O)N[C@@H](CS)C(=O)N[C@@H](Cc1ccc(O)cc1)C(=O)N[C@@H](CC(=O)O)C(=O)O)C(C)C [Peptide 2R1] (H-RQIKIWFQNRRMKWKKRKPKKAPCRDVCYD-OH; N-terminus and C-terminus assumed) | 40 | inhibit | inhibit | – | – | – |
| RQIKIWFQNRRMKWKKPQRFCKLRKIMNT [Peptide 2R9] | 40 | inhibit | inhibit | – | – | TLR2-induced ERK activation ([1]; FIG. 16C): strongly inhibits |
| RQIKIWFQNRRMKWKKIVFAEMPCG [TM4-ΔC] | – | – | – | 10 | yes, i.p. | Inhibitory activity of modified TM4 peptides on TLR4-driven MAPK activation and cytokine mRNA (FIG. 8) ([4]; relative ranking among TM4 variants): close to that of TM4; Plasma TNF-α and IL-6 ([6]; 10 nmol/g i.p. 30 min after LPS, 2 h after LPS or thereafter): markedly diminished; Circulating TNF-α and IL-6 ([6]; 10 nmol/g i.p. 30 min after LPS, measured 1 h after LPS): did not affect; Circulating IL-6 and TNF-α levels ([6]; 10 nmol/g i.v., LPS i.p., 8-h observation): significantly lowered; Efficiency with respect to circulating IL-6 at 4- or 8-h time points ([6]; dose increased to 25 nmol/g): did not augment; LPS-induced systemic cytokine response in vivo ([6]; sublethal LPS 1 μg/g, peptide 10 nmol/g): strongly suppress; also recorded: effectively suppress; Survival after lethal LPS challenge ([7]; peptide 10 nmol/g i.p. 1 h before): rescued all animals and 10 of 10 and protect; Survival after lethal LPS challenge, therapeutic administration ([7]; peptide i.p. 3 h after LPS): Five of seven |
| RQIKIWFQNRRMKWKKCLQDAIDHS [TF5-ΔC] | – | – | – | 20 | Yes, i.p. | – |
| TM3: TRAM decoy peptide: Antennapedia sequence at N terminus of QNDFGIRPG (RQIKIWFQNRRMKWKKQNDFGIRPG) | – | – | – | – | – | p38 and ERK MAPK activation without LPS stimulation [8]: weakly activated |

Source: patent US20130203649A1, “INHIBITORS OF TLR SIGNALING BY TARGETING TIR DOMAIN INTERFACES” (UNIVERSITY OF MARYLAND, BALTIMORE, priority 2012, published 2013)
